Results on 35 compounds are retold here after US8158657B2, “Heterocycles substituted pyridine derivatives and antifungal agent containing thereof” (Eisai R&D Management Co., Ltd., priority 2005, dated 2012).

Assay [1] deals with A. fumigatus Tsukuba strain. Description: Anti-Aspergillus activity, MIC measurement. Format: cell-based. Particulars: RPMI1640, 42-48 hours at 35° C., visual inspection, read-out: Anti-Aspergillus Activity (minimum inhibitory concentration, MIC). Here is the method:
(§1) For the C. albicans CAF2-1 strain, a fungal suspension from a standing culture for 48 hours at 30° C. in a Sabouraud dextrose liquid culture medium (SDB) was diluted with RPMI1640 medium to adjust a fungal suspension of 1.2×10^3 cells/mL. For the A. fumigatus Tsukuba strain, −80° C. stored strain was diluted with RPMI1640 medium to adjust to a fungal suspension of 4.5×10^3 cells/mL.
(§2) Using a U-bottomed 96 well plate, 8 samples/plate (A to H) of sample dilution solutions were prepared. On the 2nd to 12th rows were dispensed 10 μL of dimethyl sulfoxide solution. Weighted sample was dissolved in dimethyl sulfoxide to prepare a 2.5 mg/mL solution, 20 μL of this solution was added to the first row of the prepared plate, and 12 steps of two-fold step dilutions (10 μL of solution+10 μL of dimethyl sulfoxide solution) were performed on the plate. This sample dilution solution was dispensed in the amount of 1 μL to a flat-bottomed 96 well plate for MIC measurement to prepare a sample dilution plate.
(§3) The fungal suspension prepared in (1) was used in the amount of 99 μL/well to inoculate the flat-bottomed 96 well plate containing 1 μL/well of the test compound dilution prepared in (2), and a standing culture was carried out aerobically for 42-48 hours at 35° C.

The subject of assay [2] is C. albicans CAF2-1 strain. Description: Anti-Candida activity, MIC measurement. Format: cell-based. Particulars: CAF21STRAIN, C. albicans CAF2-1, RPMI1640, 42-48 hours at 35° C., visual inspection, read-out: Anti-Candida Activity (minimum inhibitory concentration, MIC). Here is the method: as §1, §2, §3

Molecules are shown by their SMILES. In brackets after ≈: the same amount, converted by molar mass.

Turning to `Cc1cccc(OCc2ccc(Cc3cc(-c4cccnc4N)on3)cc2)n1` [Example 3, 3-(3-(4-(6-Methyl-pyridin-2-yloxymethyl)-benzyl)-isoxazol-5-yl)-pyridin-2-ylamine], the values for the MIC in assay [1] and in assay [2] were 0.78 µg/mL (≈ 2.09 µM) and 0.1 µg/mL (≈ 0.269 µM), respectively.

On to `CCCCOCc1ccc(Cc2cc(-c3cccnc3N)on2)cc1` [Example 4, 3-(3-(4-Butoxymethyl-benzyl)-isoxazol-5-yl)-pyridin-2-ylamine], for which the MIC in assay [1] was 0.39 µg/mL (≈ 1.16 µM); in assay [2], 0.2 µg/mL (≈ 0.593 µM).

In the case of `Nc1ncccc1-c1cc(Cc2ccc(OCc3ccccc3F)cc2)no1` [Example 5, 3-(3-(4-(2-Fluoro-benzyloxy)-benzyl)-isoxazol-5-yl)-pyridin-2-ylamine], the MIC in assay [1] and in assay [2] was 0.39 µg/mL (≈ 1.04 µM) throughout.

For `Nc1ncccc1-c1cc(Cc2ccc(OCc3cccc(F)c3)cc2)no1` [Example 6, 3-(3-(4-(3-Fluoro-benzyloxy)-benzyl)-isoxazol-5-yl)-pyridin-2-ylamine], the MIC in assay [1] and in assay [2] was 0.39 µg/mL (≈ 1.04 µM) in each case.

Take `Nc1ncccc1-c1cc(Cc2ccc(OCc3ccc(F)cc3)cc2)no1` [Example 7, 3-(3-(4-(4-Fluoro-benzyloxy)-benzyl)-isoxazol-5-yl)-pyridin-2-ylamine]: the MIC in assay [1] turned out to be 0.2 µg/mL (≈ 0.533 µM); in assay [2] it was 1.56 µg/mL (≈ 4.16 µM).

With `Nc1ncccc1-c1cc(Cc2ccc(OCC3CC3)cc2)no1` [Example 8, 3-(3-(4-Cyclopropylmethoxy-benzyl)-isoxazol-5-yl)-pyridin-2-ylamine], the MIC in assay [1] amounted to 0.78 µg/mL (≈ 2.43 µM); in assay [2], 1.56 µg/mL (≈ 4.85 µM).

As for `Cc1cccc(COc2ccc(Cc3cc(-c4cccnc4N)on3)cc2)n1` [Example 10, 3-(3-(4-(6-Methyl-pyridin-2-ylmethoxy)-benzyl)-isoxazol-5-yl)-pyridin-2-ylamine], the values for the MIC in assay [1] and in assay [2] were 0.78 µg/mL (≈ 2.09 µM) and 0.39 µg/mL (≈ 1.05 µM), respectively.

As to `Nc1ccc(-c2cc(Cc3ccc(OCc4ccccc4F)cc3)no2)c(N)n1` [Example 18, 3-(3-(4-(2-Fluoro-benzyloxy)-benzyl)-isoxazol-5-yl)-pyridin-2,6-diamine], the MIC came to 0.78 µg/mL (≈ 2 µM) in assay [1] and 1.56 µg/mL (≈ 4 µM) in assay [2].

As for `Nc1ccc(-c2cc(Cc3ccc(OCc4cccc(F)c4)cc3)no2)c(N)n1` [Example 19, 3-(3-(4-(3-Fluoro-benzyloxy)-benzyl)-isoxazol-5-yl)-pyridin-2,6-diamine], the MIC in assay [1] was 0.39 µg/mL (≈ 0.999 µM); in assay [2] it was 0.78 µg/mL (≈ 2 µM).

For `Nc1ccc(-c2cc(Cc3ccc(OCc4ccc(F)cc4)cc3)no2)c(N)n1` [Example 20, 3-(3-(4-(4-Fluoro-benzyloxy)-benzyl)-isoxazol-5-yl)-pyridin-2,6-diamine], the MIC in assay [1] was found to be 0.2 µg/mL (≈ 0.512 µM); in assay [2], 0.78 µg/mL (≈ 2 µM).

For the compound `Nc1ccc(-c2cc(Cc3ccc(OCC4CC4)cc3)no2)c(N)n1` [Example 21, 3-(3-(4-Cyclopropylmethoxy-benzyl)-isoxazol-5-yl)-pyridin-2,6-diamine], the MIC in assay [1] was determined as 0.78 µg/mL (≈ 2.32 µM); in assay [2], 1.56 µg/mL (≈ 4.64 µM).

Regarding `Nc1ccc(-c2cc(Cc3ccc(OCc4ccccn4)cc3)no2)c(N)n1` [Example 22, 3-(3-(4-(Pyridin-2-ylmethoxy)-benzyl)-isoxazol-5-yl)-pyridin-2,6-diamine], the MIC came out at 0.39 µg/mL (≈ 1.04 µM) in assay [1] and 0.2 µg/mL (≈ 0.536 µM) in assay [2].

Take `Cc1cccc(COc2ccc(Cc3cc(-c4ccc(N)nc4N)on3)cc2)n1` [Example 23, 3-(3-(4-(6-Methyl-pyridin-2-ylmethoxy)-benzyl)-isoxazol-5-yl)-pyridin-2,6-diamine]: the MIC in assay [1] is 1.56 µg/mL (≈ 4.03 µM); in assay [2] it was 0.78 µg/mL (≈ 2.01 µM).

For `COCc1ccc(-c2cc(Cc3ccc(OCc4ccccc4)cc3)no2)c(N)n1` [Example 26, 3-(3-(4-Benzyloxy-benzyl)-isoxazol-5-yl)-6-methoxymethyl-pyridin-2-ylamine], the MIC in assay [1] and in assay [2] was 0.78 µg/mL (≈ 1.94 µM) throughout.

As to `Nc1ccc(-c2cc(Cc3ccc(OCc4ccccc4)cc3)no2)cn1` [Example 28, 5-(3-(4-Benzyloxy-benzyl)-isoxazol-5-yl)-pyridin-2-ylamine], the results for the MIC in assay [1] and in assay [2] were 0.39 µg/mL (≈ 1.09 µM) and > 25 µg/mL, respectively.

On to `Nc1ncccc1-c1cnn(Cc2ccc(Oc3ccccc3)cc2)c1` [Example 34, 3-(1-(4-Phenoxy-benzyl)-1H-pyrazol-4-yl)-pyridin-2-ylamine], for which the MIC in assay [1] came to 0.39 µg/mL (≈ 1.14 µM); in assay [2], 0.78 µg/mL (≈ 2.28 µM).

As to `Nc1ncccc1-c1cnn(Cc2cccc(Oc3ccccc3)c2)c1` [Example 35, 3-(1-(3-Phenoxy-benzyl)-1H-pyrazol-4-yl)-pyridin-2-ylamine], the MIC was 1.56 µg/mL (≈ 4.56 µM) in assay [1] and 0.2 µg/mL (≈ 0.584 µM) in assay [2].

For the compound `Nc1ncccc1-n1cc(Cc2ccc(OCc3ccccc3)cc2)cn1` [Example 39, 3-(4-(4-Benzyloxy-benzyl)-pyrazol-1-yl)-pyridin-2-ylamine], the MIC in assay [1] and in assay [2] was 3.13 µg/mL (≈ 8.78 µM) throughout.

`Cc1ccc(COc2ccc(Cc3cc(-c4cccnc4N)on3)cc2)nc1` [Example 42, 3-(3-(4-(5-Methyl-pyridin-2-ylmethoxy)-benzyl)-isoxazol-5-yl)-pyridin-2-ylamine]: the figures for the MIC in assay [1] and in assay [2] were 1.56 µg/mL (≈ 4.19 µM) and 0.78 µg/mL (≈ 2.09 µM), respectively.

In the case of `Cc1ccc(OCc2ccc(Cc3cc(-c4cccnc4N)on3)cc2)nc1` [Example 44, 3-(3-(4-(5-Methyl-pyridin-2-yloxymethyl)-benzyl)-isoxazol-5-yl)-pyridin-2-ylamine], the MIC in assay [1] and in assay [2] was 1.56 µg/mL (≈ 4.19 µM) in each case.

As for `Cc1ccc(Cc2ccc(Cc3cc(-c4cccnc4N)on3)cc2)o1` [Example 46, 3-(3-(4-(5-Methyl-furan-2-ylmethyl)-benzyl)-isoxazol-5-yl)-pyridin-2-ylamine], the MIC worked out at 0.2 µg/mL (≈ 0.579 µM) in assay [1] and 0.05 µg/mL (≈ 0.145 µM) in assay [2].

`Cc1cc(COc2ccc(Cc3cc(-c4cccnc4N)on3)cc2)ccn1` [Example 47, 3-(3-(4-(2-Methyl-pyridin-4-ylmethoxy)-benzyl)-isoxazol-5-yl)-pyridin-2-ylamine]: the figures for the MIC in assay [1] and in assay [2] were 0.39 µg/mL (≈ 1.05 µM) and 0.2 µg/mL (≈ 0.537 µM), respectively.

For the compound `Cc1ccc(Oc2ccc(Cc3cc(-c4cccnc4N)on3)s2)cc1` [Example 48, 3-(3-(5-p-Tolyloxy-thiophen-2-ylmethyl)-isoxazol-5-yl)-pyridin-2-ylamine], the figures for the MIC in assay [1] and in assay [2] were 0.2 µg/mL (≈ 0.55 µM) and 0.39 µg/mL (≈ 1.07 µM), respectively.

As for `Nc1ncccc1-c1cc(Cc2ccc(OCc3ccncc3)cc2)no1` [Example 49, 3-(3-(4-(Pyridin-4-ylmethoxy)-benzyl)-isoxazol-5-yl)-pyridin-2-ylamine], the MIC was 0.39 µg/mL (≈ 1.09 µM) in assay [1] and 0.05 µg/mL (≈ 0.14 µM) in assay [2].

Take `Nc1ncccc1-c1cc(Cc2ccc(OCc3cccnc3)cc2)no1` [Example 50, 3-(3-(4-(Pyridin-3-ylmethoxy)-benzyl)-isoxazol-5-yl)-pyridin-2-ylamine]: the MIC in assay [1] came to 1.56 µg/mL (≈ 4.35 µM); in assay [2], 0.78 µg/mL (≈ 2.18 µM).

Take `Nc1ncccc1-c1cc(Cc2ccc(Oc3ccccc3)nc2)no1` [Example 53, 3-(3-(6-Phenoxy-pyridin-3-ylmethyl)-isoxazol-5-yl)-pyridin-2-ylamine]: the MIC in assay [1] and in assay [2] was 0.2 µg/mL (≈ 0.581 µM) each time.

For `Nc1ncccc1-c1cc(Cc2ccc(COc3ccc(F)cn3)cc2)no1` [Example 56], the values for the MIC in assay [1] and in assay [2] were > 25 µg/mL and 1.56 µg/mL (≈ 4.14 µM), respectively.

Turning to `Nc1ncccc1-c1cc(Cc2ccn(Cc3ccccc3)c2)no1` [Example 57, 3-(3-(1-Benzyl-1H-pyrrol-3-ylmethyl)-isoxazol-5-yl)-pyridin-2-ylamine], the MIC in assay [1] was determined as 0.2 µg/mL (≈ 0.605 µM); in assay [2], 0.05 µg/mL (≈ 0.151 µM).

As for `Nc1ncccc1-c1cc(Cc2ccc(COc3cc(F)ccn3)cc2)no1` [Example 59, 3-(3-(4-(4-Fluoro-pyridin-2-yloxymethyl)-benzyl)-isoxazol-5-yl)-pyridin-2-ylamine], the MIC in assay [1] and in assay [2] was 0.39 µg/mL (≈ 1.04 µM) throughout.

`Nc1ncccc1-c1cc(Cc2cccc(OCc3ccccn3)c2)no1` [Example 60, 3-(3-(3-(Pyridin-2-ylmethoxy)-benzyl)-isoxazol-5-yl)-pyridin-2-ylamine]: the MIC was 1.56 µg/mL (≈ 4.35 µM) in assay [1] and 0.2 µg/mL (≈ 0.558 µM) in assay [2].

In the case of `Nc1ncccc1-c1cc(Cc2cccc(OCc3ccccc3)c2)no1` [Example 61, 3-(3-(3-Benzyloxy-benzyl)-isoxazol-5-yl)-pyridin-2-ylamine], the MIC amounted to 0.39 µg/mL (≈ 1.09 µM) in assay [1] and 0.2 µg/mL (≈ 0.56 µM) in assay [2].

With `Nc1ncccc1-c1cc(Cc2ccc(OCc3ccc(Cl)cn3)cc2)no1` [Example 63, 3-(3-(4-(5-Chloro-pyridin-2-ylmethoxy)-benzyl)-isoxazol-5-yl)-pyridin-2-ylamine], the MIC in assay [1] and in assay [2] was 0.78 µg/mL (≈ 1.99 µM) each time.

On to `Nc1ncccc1-c1cc(Cc2cccc(Oc3ccccc3)c2)no1` [Example 64, 3-(3-(3-Phenoxy-benzyl)-isoxazol-5-yl)-pyridin-2-ylamine], for which the MIC in assay [1] was 0.78 µg/mL (≈ 2.27 µM); in assay [2], 0.2 µg/mL (≈ 0.582 µM).

Turning to `CCCCOc1cccc(Cc2cc(-c3cccnc3N)on2)c1` [Example 65, 3-(3-(3-Butoxy-benzyl)-isoxazol-5-yl)-pyridin-2-ylamine], the MIC in assay [1] was found to be 0.78 µg/mL (≈ 2.41 µM); in assay [2], 0.39 µg/mL (≈ 1.21 µM).

On to `Nc1ncccc1-c1cc(Cc2cccc(OCC3CC3)c2)no1` [Example 66, 3-(3-(3-Cyclopropylmethoxy-benzyl)-isoxazol-5-yl)-pyridin-2-ylamine], for which the MIC in assay [1] came out at 0.78 µg/mL (≈ 2.43 µM); in assay [2], 0.1 µg/mL (≈ 0.311 µM).
